Test results published in paper PMC8386105, “A mechanism-inspired UDP-N-acetylglucosamine pyrophosphorylase inhibitor” (RSC Chemical Biology, 2020).

Assays:
[1] = target: T1, UDP-N-acetylglucosamine pyrophosphorylase (AfUAP1) (Aspergillus fumigatus, UniProt Q4WAR0); assay: HPAEC assay of UDP-GlcNAc formation by recombinant enzyme; assay type: biochemical
T1 construct: gene AFUA_7G02180
T1 sequence (Q4WAR0 1-509): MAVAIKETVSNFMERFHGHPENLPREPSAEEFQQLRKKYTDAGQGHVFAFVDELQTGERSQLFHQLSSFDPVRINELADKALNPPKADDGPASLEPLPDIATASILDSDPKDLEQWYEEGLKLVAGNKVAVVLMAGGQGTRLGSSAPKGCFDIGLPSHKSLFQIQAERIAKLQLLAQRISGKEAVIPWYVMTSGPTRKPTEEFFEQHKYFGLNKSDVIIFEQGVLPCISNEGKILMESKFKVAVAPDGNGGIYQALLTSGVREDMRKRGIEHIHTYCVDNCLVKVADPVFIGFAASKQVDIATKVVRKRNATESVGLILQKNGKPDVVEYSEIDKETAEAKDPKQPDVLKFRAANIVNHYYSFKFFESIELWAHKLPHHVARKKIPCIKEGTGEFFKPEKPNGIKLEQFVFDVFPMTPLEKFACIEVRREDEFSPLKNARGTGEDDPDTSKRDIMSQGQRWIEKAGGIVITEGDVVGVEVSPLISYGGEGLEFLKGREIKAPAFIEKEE

[2] = target: T1, UDP-N-acetylglucosamine pyrophosphorylase (AfUAP1)

IC50 [1]	SMILES	X-ray crystal structure, 1.75 Å (PPi and Mg2+ soak) [2]
115 ± 40 µM	O=c1ccn([C@@H]2O[C@H](COP(=O)(O)CP(=O)(O)OP(=O)(O)O)[C@@H](O)[C@H]2O)c(=O)[nH]1 [compound 5, meUTP]	
	O=P(O)(O)OP(=O)(O)O [pyrophosphate]	is tethered by interactions with positively charged residues, such as Arg141, Lys437 and Lys148
